Results published in PMC7612312 (Nature chemical biology, 2019).

System: clathrin heavy chain (CHC; antibody recognises both CHC1 and CHC2)
Test: CETSA
Type: biochemical, Arabidopsis thaliana

EC50: 123 ± 1.13 µM
Structure (SMILES): O=S(=O)(Nc1ccccc1)c1ccc(Br)s1 [compound 14, ES9-17]
